According to patent US11352363B1, “Spiropyrrolidine derived antiviral agents” (Enanta Pharmaceuticals, Inc., priority 2020, dated 2022):

Each molecule was assayed against SARS-CoV-2 3CL-protease (Severe acute respiratory syndrome coronavirus 2 (2019-nCoV) (SARS-CoV-2), UniProt P0DTD1) (assay: SARS-CoV-2 3C-like (3CL) protease fluorescence assay (FRET)). Details: read-out: FRET IC50.
Assay type: biochemical
In the case of `CC(C)C[C@@H](C(=O)N1C[C@]2(C[C@H]1C(O)S(=O)(=O)O)C(=O)Nc1ccccc12)N(C)C(=O)c1cc2c(F)cccc2[nH]1` (stereo partly drawn) [Compound 30], the IC50 is reported as < 0.1 µM.
With `COc1cccc2[nH]c(C(=O)N(C)[C@@H](CC3CCC3)C(=O)N3C[C@]4(C[C@H]3C#N)C(=O)Nc3ccccc34)cc12` [Compound 92] the IC50 was < 0.1 µM.
For `COc1cccc2[nH]c(C(=O)N[C@@H](CC(C)C)C(=O)N3C[C@]4(C[C@H]3C(O)S(=O)(=O)O)C(=O)Nc3ccccc34)cc12` (stereo partly drawn) [Compound 29], the IC50 was < 0.1 µM.
In the case of `CC(C)CC[C@@H](C(=O)N1C[C@]2(C[C@H]1C#N)C(=O)Nc1ccccc12)N(C)C(=O)c1cc2c(F)cc(F)cc2[nH]1` [Compound 104], the IC50 is reported as < 0.1 µM.
`CC(C)C[C@@H](C(=O)N1C[C@]2(C[C@H]1C#N)C(=O)Nc1ccccc12)N(C)C(=O)c1ccc(F)cc1Cl` [Compound 61] was tested, and the IC50 was < 0.1 µM.
In the case of `CC(C)C[C@@H](C(=O)N1C[C@]2(C[C@H]1C#N)C(=O)Nc1ccccc12)N(C)C(=O)c1n[nH]c2ccccc12` [Compound 75], the IC50 is reported as < 0.1 µM.
With `CC(C)C[C@@H](C(=O)N1C[C@]2(C[C@H]1C#N)C(=O)Nc1ccccc12)N(C)C(=O)c1cc2c(Br)cccc2[nH]1` [Compound 79] the IC50 was < 0.1 µM.
For `CN(C(=O)c1cc2c(F)cccc2[nH]1)[C@@H](CC1CCC1)C(=O)N1C[C@]2(C[C@H]1C#N)C(=O)Nc1ccccc12` [Compound 93], the IC50 was < 0.1 µM.
`CCCN(C(=O)c1cc2c(F)cccc2[nH]1)[C@@H](CC(C)C)C(=O)N1C[C@]2(C[C@H]1C#N)C(=O)Nc1ccccc12` [Compound 98] was tested, and the IC50 was < 0.1 µM.
For `CN(C(=O)c1cc2c(OC(F)(F)F)cccc2[nH]1)[C@@H](CC1CCCC1)C(=O)N1C[C@]2(C[C@H]1C#N)C(=O)Nc1ccccc12` [Compound 108], the IC50 was < 0.1 µM.
`CC(C)C[C@H](NC(=O)c1cc2c(F)cccc2[nH]1)C(=O)N1C[C@]2(C[C@H]1C#N)C(=O)Nc1ccccc12` [Compound 27] was tested, and the IC50 was < 0.1 µM.
For `CC(C)C[C@@H](C(=O)N1C[C@]2(C[C@H]1C(=O)C(=O)NC1CCCCC1)C(=O)Nc1ccccc12)N(C)C(=O)c1cc2c(F)cccc2[nH]1` [Compound 35], the IC50 was > 1 µM.
`CC(C)C[C@@H](C(=O)N1C[C@]2(C[C@H]1C#N)C(=O)Nc1ccccc12)N(C)C(=O)c1sc2cc(F)ccc2c1Cl` [Compound 43] was tested, and the IC50 was 0.1 to 1 µM.
With `CC(C)C[C@@H](C(=O)N1C[C@]2(C[C@H]1C#N)C(=O)Nc1ccccc12)N(C)C(=O)c1cc2c(F)c(Cl)ccc2[nH]1` [Compound 73] the IC50 was < 0.1 µM.

What follows are molecules tested on 229E human corona virus (hCoV) (assay: 229E live virus assay). Details: Human coronavirus 229E, MRC5, 144 h, read-out: 229E EC50.
Assay type: cell-based, hCoV-229E
For `[2H]C([2H])([2H])N(C(=O)c1cnn(C(C)(C)C)c1)[C@@H](CC1CC1)C(=O)N1C[C@]2(C[C@H]1C#N)C(=O)Nc1ccccc12` [Compound 125], the EC50 was < 0.1 µM.
